{
  "source": "patent US5508387A",
  "about": "“Selectin binding glycopeptides” (Glycomed Incorporated, priority 1993, dated 1996)",
  "key": {"[1]": {"test_system": "L-selectin", "experiment": "ELISA assay: inhibition of L-selectin-IgG chimera binding to 2,3 sLex glycolipid", "conditions": "FIG. 4; tested at several concentrations; results expressed as percent of control binding", "procedure": "(§1) An ELISA assay (Foxall et al, The Journal of Cell Biology (1992) 117:895) is preferably used which consists of the following three steps:\n(§2) 1. 2,3 sLex glycolipid is transferred into microtitre wells as solutions and then evaporated off. Excess, which remained unattached, is washed off with water. The wells are then blocked with a blocking agent, preferably BSA.\n(§3) 2. Preparation of \"multivalent\" receptor of the Selectin-IgG chimera is carried out by combining the respective chimera with biotin labelled goat F(ab')2 anti-human IgG (Fc specific) and streptavidin-alkaline phosphatase diluted appropriately and incubated. This allows the soluble multivalent receptor complex to form.\n(§4) 3. Potential inhibitors such as glyco-amino acids or glycopeptides of structural formula I are allowed to react with the soluble receptor. This solution is then placed in the microtitre wells that are prepared in step 1. The plate is incubated to allow the soluble receptor to bind to its natural ligand. In the presence of a strong inhibitor only a few of the receptors should be free to bind to the microtitre plate coated with the natural ligand.\n(§5) The positive control is the signal produced by the soluble receptor when it is allowed to react with the natural ligand in the microtitre wells in the absence of any inhibitor. This is considered 100% binding. The signal produced by the receptor that is previously treated with an inhibitor (recorded as O.D.), is divided by the signal produced by the positive control and multiplied by 100 to calculate the % receptor bound to the well in the presence of the inhibitor. The reciprocal of this is the % inhibition.\n(§6) The glyco-amino acids or glycopeptides of structural formula I can be tested for their ability to bind to a selectin receptor and/or block the binding site of the receptor and thereby prevent a natural ligand from binding to the selectin receptor (Foxall et al, The Journal of Cell Biology (1992) 117:895). A generalized procedure for testing the ligands is given below.\n(§7) An ELISA assay is preferably used which consisted of the following three steps:\n1. 2,3 sLex glycolipid (25 picomol/well) was transferred into microtitre wells as solutions and evaporated off. Excess, which remained unattached, was washed off with water. The wells were blocked with 5% BSA at room temperature for an hour and washed with PBS containing 1 mM calcium.\n2. Preparation of \"multivalent\" receptor of the Selectin-IgG chimera was carried out by combining the respective chimera (1 μg/mL) with biotin labelled goat F(ab')2 anti-human IgG (Fc specific) and streptavidin-alkaline phosphatase diluted 1:1000 in 1% BSA-PBS (1 mM calcium) and incubating at 37° C. for 15 min. This allowed the soluble multivalent receptor complex to form.\n3. Potential inhibitors such as glyco-amino acids or glycopeptides of structural formula I were allowed to react with the soluble receptor at 37° C. for 45 min. This test assumes that optimal binding, between the soluble phase receptor complex and the inhibitor (non-natural ligand), would occur within this time frame. This solution was placed in the microtitre wells that were prepared in step 1. The plate was incubated at 37° C. for 45 minutes to allow the soluble receptor to bind to its natural ligand. In the presence of a strong inhibitor only a few receptors would be free to bind to the microtitre plate coated with the natural ligand.\nas §5, with “control was” for “control is”, “it was” for “it is”, “This was” for “This is”, “that was” for “that is”, “O.D.), was” for “O.D.), is”"}, "[2]": {"test_system": "lymphocyte binding to high endothelial venules (HEV), L-selectin mediated", "experiment": "Stamper-Woodruff assay (lymphocyte adhesion to HEV of lymph node frozen sections)", "assay_type": "cell-based, female Swiss Webster mice; female Sprague-Dawley rats", "conditions": "FIG. 7, percent of relative binding", "source_text": "(§8) Lymphocytes are known to circulate from blood to lymphoid tissues via high endothelial venules (HEV) on lymph nodes. L-selectin is expressed on the surface of lymphocytes and is believed to mediate lymphocyte adhesion by binding to the natural ligand on the HEV. The glyco-amino acids or glycopeptides of structural formula I can be tested for their ability to bind to a selectin receptor and/or block the binding site of the receptor and thereby prevent a natural ligand from binding to the selectin receptor. See, for example, Stoolman et al, The Journal of Cell Biology (1983) 96:722. The Stamper-Woodruff assay is well known in the an, and generally consists of the following three steps:\n1. Preparation of the lymphocytes:\n(a) The lymphocytes are obtained from the mesenteric nodes of female Swiss Webster mice, by gently teasing tissues with phosphate buffered saline (PBS). The cells are obtained by gently squeezing the cells from the tissues. The cells are dispersed and the cell clumps are removed. The single cell suspension is suspended, washed, and kept on ice until use (less than two hours). Cells are counted and prepared at an appropriate concentration.\n(b) The superficial and deep cervical lymph nodes of female Sprague-Dawley rats are dissected and prepared in the same way as the mice.\n2. Preparation of frozen sections:\nSuperficial or deep cervical lymph nodes are dissected from the animals, snap frozen, and immediately placed in a cryostat for sectioning. 10-μm sections are prepared and transferred onto glass slides, and air dried.\n3. Potential inhibitors are added to lymphocyte suspensions 10-30 minutes before the start of the binding assay, and unless otherwise stated, are present throughout the subsequent binding incubation.\nThe frozen sections are used in the order in which they are cut. Aliquots of untreated lymphocytes (positive control), suspensions containing fucoidin (negative control) and suspensions containing potential inhibitors are layered on the sections in an arbitrary sequence such that the control and each test substance are represented once in a series.\nThe binding of the lymphocytes to the HEV is easily distinguishable from binding elsewhere by virtue of the characteristic picture of tightly packed, darkly stained lymphocytes overlaying the histologically distinctive HEV. The number of adherent lymphocytes on each HEV are counted and the average number of adherent cells per HEV (cells bound per HEV) is calculated. The results are expressed as a percent of relative binding, wherein the positive control is considered to be 100% binding.\nas §8, with “were” for “can be”, “art,” for “an,”\n(a) The lymphocytes were obtained from the mesenteric nodes of female Swiss Webster mice (23-27 g), by gently teasing tissues by phosphate buffered saline (PBS). […] Cells were counted and prepared at 3-4×10^7 cells/ml. […]"}, "[3]": {"test_system": "P-selectin", "experiment": "ELISA assay: inhibition of P-selectin-IgG chimera binding to 2,3 sLex glycolipid", "conditions": "FIG. 5; tested at several concentrations; results expressed as percent of control binding", "procedure": "as §1, §2, §3, §4, §5, §6, §7\n1. 2,3 sLex glycolipid (25 picomol/well) was transferred into microtitre wells as solutions and evaporated off. Excess, which remained unattached, was washed off with water. […]\nas §5, with “was” for “is”, “This is considered 100% binding.” left out, “The reciprocal of this is the % inhibition.” left out"}, "[4]": {"test_system": "P-selectin", "experiment": "P-selectin/HL-60 assay", "assay_type": "cell-based", "conditions": "FIG. 6; HL-60 cells; tested at several concentrations", "source_text": "The glyco-amino acids or glycopeptides of structural formula I can be tested for their ability to inhibit P-selectin binding to its native ligand. A generalized procedure for testing the ligands is given below. A P-selectin/HL-60 assay is preferably used which consists of the following steps:\n1. HL-60 cells are harvested and pelleted by centrifugation. The cells are washed, counted and the volume adjusted appropriately.\n2. PVC microtiter plate is blocked with a blocking agent, and washed with TBS-BSA.\n3. P-selectin is diluted appropriately in BSA-TBS Ca containing goat F(ab')2 anti-human IgG (Fc spec) and streptavidin-alkaline phosphatase. Positive controls have DMF added to equal the highest concentration of DMF in the sample compounds.\n4. Ligands are incubated at room temperature with brisk rotation. […]\nPara-nitrophenylphosphonate is added to the plate. […] Aliqouts from each well is transferred to a polystyrene microtiter plate and O.D. read at 405 nm. […] The signal produced by the receptor that is previously treated with an inhibitor (recorded as O.D.), is divided by the signal produced by the positive control and multiplied by 100 to calculate the % receptor bound to the well in the presence of the inhibitor. […]\n1. […] The cells were washed three times with TBS without Ca, counted and the volume adjusted to 1.9×10^6 /ml in 1% BSA-TBS Ca just prior to use. […]"}},
  "data": [
    {"molecule": "C[C@@H]1O[C@@H](CCCC(=O)N2CCC[C@H]2C(=O)N[C@@H](Cc2ccccc2)C(=O)O)[C@@H](O)[C@H](O)[C@@H]1O", "note": "[#4, N-[4-(1-deoxy-α-L-fucopyranosyl)n-butanoyl]-L-proline-L-phenylalanine]", "values": [
      {"measurement": "inhibition of the binding of sLe^x to L-selectin", "setting": "[1]", "result": "inhibit the binding of sLe^x to L-selectin"},
      {"measurement": "inhibitory effects in the Stamper-Woodruff assay (cell adhesion)", "setting": "[2]", "result": "inhibitory effects"},
      {"measurement": "inhibition of the binding of sLe^x to P-selectin", "setting": "[3]", "result": "inhibit the binding of sLe^x to P-selectin"}
    ]},
    {"molecule": "C[C@@H]1O[C@@H](CC(=O)N[C@@H](CCCCNC(=O)OC(C)(C)C)C(=O)O)[C@@H](O)[C@H](O)[C@@H]1O", "note": "[#3, N-ω-t-butoxylcarbonyl-N-α-[(1-deoxy-α-L-fucopyranosyl)acetyl]-L-lysine]", "values": [
      {"measurement": "inhibition of the binding of sLe^x to L-selectin", "setting": "[1]", "result": "inhibit the binding of sLe^x to L-selectin"},
      {"measurement": "inhibitory effects in the Stamper-Woodruff assay (cell adhesion)", "setting": "[2]", "result": "inhibitory effects"},
      {"measurement": "inhibition of the binding of sLe^x to P-selectin", "setting": "[3]", "result": "inhibit the binding of sLe^x to P-selectin"}
    ]},
    {"molecule": "C[C@@H]1O[C@@H](CC(=O)N2CCC[C@H]2C(=O)N[C@H](C(=O)O)c2ccccc2)[C@@H](O)[C@H](O)[C@@H]1O", "note": "[#5, N-[(1-deoxy-α-L-fucopyranosyl)acetyl]-L-proline-L-phenylglycine]", "values": [
      {"measurement": "inhibition of the binding of sLe^x to L-selectin", "setting": "[1]", "result": "inhibit the binding of sLe^x to L-selectin"},
      {"measurement": "inhibitory effects in the Stamper-Woodruff assay (cell adhesion)", "setting": "[2]", "result": "inhibitory effects"},
      {"measurement": "inhibition of the binding of sLe^x to P-selectin", "setting": "[3]", "result": "inhibit the binding of sLe^x to P-selectin"}
    ]},
    {"molecule": "C[C@H](NC(=O)C[C@@H]1O[C@@H](C)[C@@H](O)[C@@H](O)[C@@H]1O)C(=O)N1CCC[C@H]1C(=O)N[C@@H](Cc1ccccc1)C(=O)O", "note": "[#2, N-[(1-deoxy-α-L-fucopyranosyl)acetyl]-L-alanine-L-proline-L-phenylalanine]", "values": [
      {"measurement": "inhibition of the binding of sLe^x to L-selectin", "setting": "[1]", "result": "inhibit the binding of sLe^x to L-selectin"},
      {"measurement": "inhibition of the binding of sLe^x to P-selectin in the HL-60 assay", "setting": "[4]", "result": "inhibit the binding of sLe^x to P-selectin"},
      {"measurement": "inhibitory effects in the Stamper-Woodruff assay (cell adhesion)", "setting": "[2]", "result": "inhibitory effects"}
    ]},
    {"molecule": "C[C@@H]1O[C@@H](CC(=O)N2CCC[C@H]2C(=O)N[C@@H](Cc2ccccc2)C(=O)O)[C@@H](O)[C@H](O)[C@@H]1O", "note": "[#1, N-[(1-deoxy-α-L-fucopyranosyl)acetyl]-L-proline-L-phenylalanine]", "values": [
      {"measurement": "inhibition of the binding of sLe^x to L-selectin", "setting": "[1]", "result": "inhibit the binding of sLe^x to L-selectin"},
      {"measurement": "inhibition of the binding of sLe^x to P-selectin in the HL-60 assay", "setting": "[4]", "result": "inhibit the binding of sLe^x to P-selectin"},
      {"measurement": "inhibitory effects in the Stamper-Woodruff assay (cell adhesion)", "setting": "[2]", "result": "inhibitory effects"},
      {"measurement": "inhibition of the binding of sLe^x to P-selectin", "setting": "[3]", "result": "inhibit the binding of sLe^x to P-selectin"}
    ]},
    {"molecule": "CC1OC(CCCC(=O)NC(Cc2ccccc2)C(=O)O)C(O)C(O)C1O", "note": "[#6, N-[4-(1-deoxy-α-L-fucopyranosyl)n-butanoyl]-L-phenylalanine]", "values": [
      {"measurement": "inhibition of the binding of sLe^x to L-selectin", "setting": "[1]", "result": "inhibit the binding of sLe^x to L-selectin"}
    ]}
  ]
}
